Where a name gives a salt, the structure may show the parent alone.
Tested on: PRKACA-PRKAR2A interaction (SmBiT-PRKACA / LgBiT-PRKAR2A), protein kinase A
Parameters: NanoLuc complementation counter-screen in cell extract, PRKACA with PRKAR2A, loss of luminescence, detects NanoLuc interference
Details: 0.5 h, 20 µM; inhibitor

Row | SMILES | Inh (PKA) [%]
1 | CN1CCCCC1Cn1cc(C(=O)c2cc([N+](=O)[O-])ccc2I)c2ccccc21 (stereo not shown) [UM0141913:01, AM1241] | 12.3

Same assay, conditions: counter-screen for NanoLuc interference, 0.5 h, 20 µM, inhibitor, Inh (PKA)

Row | SMILES | Inh (PKA) [%]
2 | COc1cc(Nc2ncc(F)c(Nc3ccc4c(n3)NC(=O)C(C)(C)O4)n2)cc(OC)c1OC [UM0141915:01, R406 (free base)] | 51.96

Same assay, conditions: counter-screen for NanoLuc interference; 0.5 h, 20 µM; inhibitor

Row | SMILES | Inh (PKA) [%]
3 | Cn1cc(-c2ccc3nnc(C(F)(F)c4ccc5ncccc5c4)n3n2)cn1 [UM0141869:01, JNJ-38877605] | 8.714
4 | OCCn1cc(-c2cnc3nnn(Cc4ccc5ncccc5c4)c3n2)cn1 [UM0141870:01, PF-04217903] | 1.023
5 | CCc1c2c(nc3ccc(OC(=O)N4CCC(N5CCCCC5)CC4)cc13)-c1cc3c(c(=O)n1C2)COC(=O)[C@]3(O)CC [UM0141872:01, Irinotecan] | 0.8933
6 | O=C1NC(=O)/C(=C\c2ccc3nccnc3c2)S1 [UM0141873:01, AS-605240] | 0.3149
7 | COC(=O)[C@H](c1ccccc1Cl)N1CCc2sccc2C1 [UM0141874:01, Clopidogrel] | 72.93
8 | C[C@H](Cn1cnc2c(N)ncnc21)OCP(=O)(O)O [UM0141875:01, Tenofovir] | -0.0985
9 | O=P(O)(O)C(O)(Cc1cccnc1)P(=O)(O)O [UM0141876:01, Risedronate Sodium] | -0.1627
10 | CNS(=O)(=O)Cc1ccc2[nH]cc(CCN(C)C)c2c1 [UM0141877:01, Sumatriptan Succinate] | 0.457
11 | CCOc1cc(CC(=O)N[C@@H](CC(C)C)c2ccccc2N2CCCCC2)ccc1C(=O)O [UM0141879:01, Repaglinide] | 5.467
12 | COc1c(N2C[C@@H]3CCCN[C@@H]3C2)c(F)cc2c(=O)c(C(=O)O)cn(C3CC3)c12 [UM0141881:01, Moxifloxacin HCl] | 1.366
13 | Cc1ccc(C(=O)N(CCCN)[C@@H](c2nc3cc(Cl)ccc3c(=O)n2Cc2ccccc2)C(C)C)cc1 [UM0141883:01, Ispinesib (SB-715992)] | 12.18
14 | COc1ccc(C(CN(C)C)C2(O)CCCCC2)cc1 (stereo not shown) [UM0141884:01, Venlafaxine] | -0.1027
15 | CC(c1cc2ccccc2s1)N(O)C(N)=O (stereo not shown) [UM0141885:01, Zileuton] | 2.302
16 | c1cnc2cc3c(cc2n1)[C@@H]1CNC[C@H]3C1 [UM0141886:01, Varenicline Tartrate] | 1.343
17 | COc1ccc(S(=O)(=O)N(C(C)=O)c2ccccc2/C=C/c2cc[n+]([O-])cc2)cc1 [UM0141887:01, HMN-214] | 4.215
18 | Nc1nc(F)nc2c1ncn2[C@@H]1O[C@H](CO)[C@@H](O)[C@@H]1O [UM0141888:01, Fludarabine] | 1.153
19 | CC(=O)Nc1nc(C)c(-c2ccc(Cl)c(S(=O)(=O)NCCO)c2)s1 [UM0141889:01, PIK-93] | 6.642
20 | CCN1CCN(Cc2ccc(-c3cc4c(N[C@H](C)c5ccccc5)ncnc4[nH]3)cc2)CC1 [UM0141890:01, AEE788 (NVP-AEE788)] | 7.14
21 | CC(C)CC(=O)Nc1n[nH]c2c1CN(C(=O)C1CCN(C)CC1)C2(C)C [UM0141891:01, PHA-793887] | 3.326
22 | Cc1ccc(C(=O)Nc2ccc(CN3CCN(C)CC3)c(C(F)(F)F)c2)cc1C#Cc1cnc2cccnn12 [UM0141892:01, Ponatinib (AP24534)] | 38.47

Row | SMILES | Inh (PKA) [%]
23 | Cc1cc([C@@H](C)Nc2ccccc2C(=O)O)c2nc(N3CCOCC3)cc(=O)n2c1 [UM0141893:01, AZD6482] | 55.75
24 | O=C(NCc1ccccc1)c1csc(Nc2ccncn2)n1 [UM0141894:01, Thiazovivin] | -0.9736
25 | CC(C)(C)Cn1c(N)nc2ccc(-c3[nH]c(C(C)(C)C)nc3-c3ccc(F)cc3)nc21 [UM0141895:01, LY2228820] | 34.84
26 | O=C(NC[C@H](O)CO)c1ccncc1Nc1ccc(I)cc1F [UM0141896:01, Pimasertib (AS-703026)] | 20.8
27 | Cc1cccc(-c2[nH]c(C(C)(C)C)nc2-c2ccc3nccnc3c2)n1 [UM0141897:01, SB525334] | 4.915
28 | CC1=C(C(=O)Nc2cc3cn[nH]c3cc2F)C(c2ccc(C(F)(F)F)cc2)CC(=O)N1 (stereo not shown) [UM0141898:01, GSK429286A] | 8.844
29 | Clc1ccc(C2(c3ccc(-c4cn[nH]c4)cc3)CCNCC2)cc1 [UM0141900:01, AT7867] | 29.71
30 | CCOc1ccn(-c2ccc(F)cc2)c(=O)c1C(=O)Nc1ccc(Oc2ccnc(N)c2Cl)c(F)c1 [UM0141902:01, BMS-777607] | 68.15
31 | O=C(NOCC(O)CO)c1cc(Br)c(F)c(F)c1Nc1ccc(I)cc1F (stereo not shown) [UM0141903:01, PD318088] | 48.65
32 | CCOC(=O)c1ccc(C#Cc2ccc3c(c2)C(C)(C)CCS3)nc1 [UM0141904:01, Tazarotene] | 17.58
33 | O=C(NC1CCNCC1)c1n[nH]cc1NC(=O)c1c(Cl)cccc1Cl [UM0141905:01, AT7519] | 0.5831
34 | O=S(=O)(c1cccc2cnccc12)N1CCCNCC1 [UM0141906:01, Fasudil (HA-1077) HCl] | 33.96
35 | CCCNC(=O)Nc1ccc(Oc2ncnc3cc(OC)c(OC)cc23)cc1Cl [UM0141907:01, KRN 633] | 0.03165
36 | O=C(O)c1cc(/N=N/c2ccc(S(=O)(=O)Nc3ccccn3)cc2)ccc1O [UM0141908:01, Sulfasalazine] | 56.84
37 | Nc1ccn(C[C@@H](CO)OCP(=O)(O)O)c(=O)n1 [UM0141909:01, Cidofovir] | -0.4944
38 | CN(C)Cc1cccc(N/C(=C2\C(=O)Nc3cc(C(N)=O)ccc32)c2ccccc2)c1 [UM0141912:01, BIX 02188] | 13.5
39 | CCOc1ccc(Cc2cc([C@@H]3O[C@H](CO)[C@@H](O)[C@H](O)[C@H]3O)ccc2Cl)cc1 [UM0141914:01, Dapagliflozin] | 0.9919
40 | CCCCCCCCCCCCc1ccc(S(=O)(=O)Nc2nncs2)cc1 [UM0141916:01, PHT-427] | 11.59
41 | Cc1nc(-c2ccc(OCC(C)C)c(C#N)c2)sc1C(=O)O [UM0141917:01, Febuxostat] | 17.81
42 | COc1ccc2cc(-c3nc(-c4ccc([S+](C)[O-])cc4)[nH]c3-c3ccncc3)ccc2c1 (stereo not shown) [UM0141919:01, Tie2 kinase inhibitor] | 68.85

Row | SMILES | Inh (PKA) [%]
43 | CN1C/C(=C/c2ccc(B(O)O)cc2)C(=O)/C(=C\c2ccc(B(O)O)cc2)C1 [UM0141922:01, AM 114] | 1.277
44 | NCCCC[C@@H]1NC(=O)[C@@H](Cc2ccccc2)NC(=O)[C@H](CC(=O)O)NC(=O)CNC(=O)[C@H](CCCN=C(N)N)NC1=O [UM0141923:01, Cyclo (-RGDfK)] | -1.971
45 | COC(=O)C[C@H](NC(=O)[C@@H](NC(=O)c1ccc2ccccc2n1)C(C)C)C(=O)COc1c(F)cccc1F [UM0141924:01, Q-VD(OMe)-OPh] | 13.3
46 | CO[C@H]1C[C@@H]2CC[C@@H](C)[C@@](O)(O2)C(=O)C(=O)N2CCCC[C@H]2C(=O)O[C@H]([C@H](C)C[C@@H]2CC[C@@H](O)[C@H](OC)C2)CC(=O)[C@H](C)/C=C(\C)[C@@H](O)[C@@H](OC)C(=O)[C@H](C)C[C@H](C)/C=C/C=C/C=C/1C [UM0141925:01, Rapamycin (Sirolimus)] | 2.249
47 | CCOC(=O)C1=C(N)Oc2ccc(Br)cc2[C@H]1[C@H](C#N)C(=O)OCC [UM0141926:01, HA14-1] | 18.52
48 | CO[C@H]1C[C@@H]2CC[C@@H](C)[C@@](O)(O2)C(=O)C(=O)N2CCCC[C@H]2C(=O)O[C@H]([C@H](C)C[C@@H]2CC[C@@H](OCCO)[C@H](OC)C2)CC(=O)[C@H](C)/C=C(\C)[C@@H](O)[C@@H](OC)C(=O)[C@H](C)C[C@H](C)/C=C/C=C/C=C/1C [UM0141927:01, Everolimus (RAD001)] | 0.7572
49 | CC(NC(=O)[C@H](Cc1ccccc1)NC(=O)OCc1ccccc1)C(=O)CF (stereo partly shown) [UM0141928:01, Z-FA-FMK] | 4.07
50 | Nc1ccccc1NC(=O)c1ccc(CNC(=O)OCc2cccnc2)cc1 [UM0141929:01, Entinostat (MS-275,SNDX-275)] | 3.043
51 | CC(C)CCCCC(=O)N[C@@H](CO)C(=O)N[C@@H](CC(C)C)C(=O)[C@@]1(CO)CO1 [UM0141930:01, Dihydroeponemycin] | 3.421
52 | C/C=C1\NC(=O)[C@H]2CSSCC/C=C/[C@H](CC(=O)N[C@H](C(C)C)C(=O)N2)OC(=O)[C@H](C(C)C)NC1=O [UM0141931:01, Romidepsin (FK228, depsipeptide)] | 2.202
53 | CN(C(=O)c1cc2ccccc2cc1C(=O)C(c1cccc2ccccc12)P(=O)(O)O)C1CCN(C(=O)c2ccccc2)CC1 (stereo not shown) [UM0141932:01, Cathepsin G Inhibitor I] | 16.06
54 | C=CCc1cccc(/C=N/NC(=O)CN2CCN(Cc3ccccc3)CC2)c1O [UM0141933:01, PAC-1] | 9.934
55 | CC(C)C[C@H](NC(=O)[C@H](CC(C)C)NC(=O)[C@H](CC(C)C)NC(=O)OCc1ccccc1)B(O)O [UM0141934:01, MG-262] | 2.364
56 | CN([C@@H](Cc1ccc(OS(=O)(=O)c2cccc3cnccc23)cc1)C(=O)N1CCN(c2ccccc2)CC1)S(=O)(=O)c1cccc2cnccc12 [UM0141935:01, KN-62] | 9.099
57 | C[C@@]1(F)[C@H](O)[C@@H](CO)O[C@H]1n1ccc(=O)[nH]c1=O [UM0141938:01, PSI-6206] | 1.416
58 | CC(C)[C@H](O)C(=O)N[C@@H](C)C(=O)N[C@@H]1C(=O)N(C)CCc2ccccc21 [UM0141939:01, Semagacestat (LY450139)] | -0.02723
59 | C[C@@H]1O[C@@H](CC(=O)O)CC2=C1C(=O)c1c(O)cccc1C2=O [UM0141940:01, Nanaomycin A] | 18.84
60 | COc1cc2ncnc(Nc3cccc(Br)c3)c2cc1OC [UM0141943:01, PD153035 hydrochloride] | 18.98
61 | CC(C)c1nc(CN(C)C(=O)N[C@H](C(=O)N[C@@H](Cc2ccccc2)C[C@H](O)[C@H](Cc2ccccc2)NC(=O)OCc2cncs2)C(C)C)cs1 [UM0141947:01, Ritonavir] | 6.592
